Source: ChEMBL document CHEMBL1201862, “PubChem BioAssay data set” (2004)
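All cell lines were grown in 96-well plates and treated with compound for 48 hours. Here, GI50 denotes the concentration required for 50% inhibition of growth.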 Activity calls are given as the source filed them. No stated cut-off is given here; in the data, active = GI50 up to about 1.1 µM and inactive = higher.

What was measured:
Experiment in all cases: NCI-60 cell line screen, 48 h
[1] = tested on: U-251
[2] = tested on: SK-OV-3
[3] = tested on: SNB-75
[4] = tested on: A549
[5] = tested on: MCF7
[6] = tested on: SF-295
[7] = tested on: LOX IMVI
[8] = tested on: SK-MEL-28
[9] = tested on: SNB-19
[10] = tested on: RXF 393
[11] = tested on: HL-60
[12] = tested on: NCI-H23
[13] = tested on: A498
[14] = tested on: DU-145
[15] = tested on: SF-268
[16] = tested on: EKVX
[17] = tested on: MDA-MB-231
[18] = tested on: NCI/ADR-RES
[19] = tested on: HCT-116
[20] = tested on: M14
[21] = tested on: T47D
[22] = tested on: MOLT-4
[23] = tested on: TK-10
[24] = tested on: SF-539
[25] = tested on: HOP-92
[26] = tested on: OVCAR-3
[27] = tested on: BT-549
[28] = tested on: SK-MEL-5
[29] = tested on: SW-620
[30] = tested on: UACC-257
[31] = tested on: MDA-N
[32] = tested on: COLO 205
[33] = tested on: HCC 2998
[34] = tested on: IGROV-1
[35] = tested on: HCT-15
[36] = tested on: 786-0
[37] = tested on: NCI-H226
[38] = tested on: UACC-62
[39] = tested on: SN12C
[40] = tested on: OVCAR-5
[41] = tested on: KM12
[42] = tested on: OVCAR-4
[43] = tested on: ACHN
[44] = tested on: HT-29
[45] = tested on: SK-MEL-2
[46] = tested on: UO-31
[47] = tested on: MDA-MB-435
[48] = tested on: OVCAR-8
[49] = tested on: HOP-62
[50] = tested on: NCI-H460
[51] = tested on: CAKI-1
[52] = tested on: NCI-H522
[53] = tested on: CCRF-CEM
[54] = tested on: K562
[55] = tested on: PC-3
[56] = tested on: SR
[57] = tested on: RPMI-8226
[58] = tested on: Malme-3M

## CC(=O)/C(=C/N1C(=O)CC(=O)NC1=S)C(=O)Nc1ccccc1C
[1]
  GI50: 36 µM (inactive)
[2]
  GI50: > 100 µM (inactive)
[3]
  GI50: 91.6 µM (inactive)
[4]
  GI50: 34.8 µM (inactive)
[5]
  GI50: 60.4 µM (inactive)
[6]
  GI50: 84.3 µM (inactive)
[7]
  GI50: > 100 µM (inactive)
[8]
  GI50: 58.6 µM (inactive)
[9]
  GI50: > 100 µM (inactive)
[10]
  GI50: 78.3 µM (inactive)
[11]
  GI50: 49 µM (inactive)
[12]
  GI50: 41.2 µM (inactive)
[13]
  GI50: 28.1 µM (inactive)
[14]
  GI50: 97.3 µM (inactive)
[15]
  GI50: 35.1 µM (inactive)
[16]
  GI50: 38.5 µM (inactive)
[17]
  GI50: > 100 µM (inactive)
[18]
  GI50: 39.7 µM (inactive)
[19]
  GI50: 31.6 µM (inactive)
[20]
  GI50: 76 µM (inactive)
[21]
  GI50: 81.3 µM (inactive)
[22]
  GI50: 28 µM (inactive)
[23]
  GI50: > 100 µM (inactive)
[24]
  GI50: 32.3 µM (inactive)
[25]
  GI50: > 100 µM (inactive)
[26]
  GI50: 36.1 µM (inactive)
[27]
  GI50: > 100 µM (inactive)
[28]
  GI50: 57.9 µM (inactive)
[29]
  GI50: 32.8 µM (inactive)
[30]
  GI50: 80.5 µM (inactive)
[31]
  GI50: 49.2 µM (inactive)
[32]
  GI50: > 100 µM (inactive)
[33]
  GI50: 29.4 µM (inactive)
[34]
  GI50: 91 µM (inactive)
[35]
  GI50: 42.5 µM
[36]
  GI50: 21.7 µM (inactive)
[37]
  GI50: > 100 µM (inactive)
[38]
  GI50: 24.3 µM (inactive)
[39]
  GI50: > 100 µM (inactive)
[40]
  GI50: > 100 µM (inactive)
[41]
  GI50: 37.5 µM (inactive)
[42]
  GI50: 57.5 µM (inactive)
[43]
  GI50: 58.9 µM (inactive)
[44]
  GI50: 23.5 µM (inactive)
[45]
  GI50: > 100 µM (inactive)
[46]
  GI50: > 100 µM (inactive)
[47]
  GI50: 66.8 µM (inactive)
[48]
  GI50: > 100 µM (inactive)
[49]
  GI50: 23.3 µM (inactive)
[50]
  GI50: 39.2 µM (inactive)
[51]
  GI50: 87.9 µM (inactive)

## c1ccc2c(c1)c1ccccc1n2Cn1c2ccccc2c2ccccc21
[1]
  GI50: > 100 µM (inactive)
[3]
  GI50: 30.8 µM (inactive)
[52]
  GI50: > 100 µM (inactive)
[4]
  GI50: > 100 µM (inactive)
[6]
  GI50: > 100 µM (inactive)
[7]
  GI50: > 100 µM (inactive)
[8]
  GI50: > 100 µM (inactive)
[9]
  GI50: > 100 µM (inactive)
[53]
  GI50: > 100 µM (inactive)
[10]
  GI50: > 100 µM (inactive)
[11]
  GI50: > 100 µM (inactive)
[12]
  GI50: > 100 µM (inactive)
[13]
  GI50: > 100 µM (inactive)
[14]
  GI50: > 100 µM (inactive)
[54]
  GI50: > 100 µM (inactive)
[55]
  GI50: > 100 µM (inactive)
[56]
  GI50: > 100 µM (inactive)
[15]
  GI50: > 100 µM (inactive)
[16]
  GI50: > 100 µM (inactive)
[17]
  GI50: > 100 µM (inactive)
[18]
  GI50: > 100 µM (inactive)
[57]
  GI50: > 100 µM (inactive)
[20]
  GI50: > 100 µM (inactive)
[21]
  GI50: > 100 µM (inactive)
[22]
  GI50: > 100 µM (inactive)
[23]
  GI50: > 100 µM (inactive)
[25]
  GI50: > 100 µM (inactive)
[26]
  GI50: > 100 µM (inactive)
[27]
  GI50: > 100 µM (inactive)
[28]
  GI50: > 100 µM (inactive)
[29]
  GI50: > 100 µM (inactive)
[30]
  GI50: > 100 µM (inactive)
[31]
  GI50: > 100 µM (inactive)
[34]
  GI50: > 100 µM (inactive)
[35]
  GI50: > 100 µM
[37]
  GI50: > 100 µM (inactive)
[38]
  GI50: > 100 µM (inactive)
[39]
  GI50: > 100 µM (inactive)
[40]
  GI50: > 100 µM (inactive)
[41]
  GI50: > 100 µM (inactive)
[42]
  GI50: > 100 µM (inactive)
[43]
  GI50: > 100 µM (inactive)
[44]
  GI50: > 100 µM (inactive)
[45]
  GI50: > 100 µM (inactive)
[58]
  GI50: > 100 µM (inactive)
[46]
  GI50: > 100 µM (inactive)
[47]
  GI50: > 100 µM (inactive)
[48]
  GI50: > 100 µM (inactive)
[49]
  GI50: > 100 µM (inactive)
[50]
  GI50: > 100 µM (inactive)
[51]
  GI50: > 100 µM (inactive)
